Data published in PMC11620503 (Antimicrobial Agents and Chemotherapy, 2024).

Assays:
Assay in all cases: Ki app determination (Waley's method)
CTX-M-14 = CTX-M-14 (Escherichia coli, UniProt Q9L5C7)
CTX-M-15 = CTX-M-15 (Escherichia coli, UniProt Q9EXV5)
CTX-M-27 = CTX-M-27 (Escherichia coli, UniProt Q840M4)
SHV-2 = SHV-2 (Klebsiella pneumoniae, UniProt P0A9Z8)
SHV-5 = SHV-5 (Klebsiella pneumoniae, UniProt P0A3M1)
SHV-12 = SHV-12 (Klebsiella pneumoniae, UniProt P0A3M1, L31Q)
OXA-23 = OXA-23 (Acinetobacter baumannii, UniProt Q9L4P2)
OXA-24 = OXA-24 (Acinetobacter baumannii, UniProt Q8RLA6)
OXA-65 = OXA-65 (Acinetobacter baumannii, UniProt Q58XD3)
OXA-66 = OXA-66 (Acinetobacter baumannii, UniProt Q58XD2)
OXA-72 = OXA-72 (Acinetobacter baumannii, UniProt Q5XQU0)
VIM-1 = VIM-1 (Pseudomonas aeruginosa, UniProt A0A0F7KYQ8)
VIM-2 = VIM-2 (Escherichia coli, UniProt Q5U7L7)
IMP-1 = IMP-1 (Serratia marcescens, UniProt P52699)
IMP-6 = IMP-6 (Serratia marcescens, UniProt P52699, S214G)
NDM-1 = NDM-1 (Klebsiella pneumoniae, UniProt C7C422)
NDM-4 = NDM-4 (Klebsiella pneumoniae, UniProt C7C422, M154L)
NDM-5 = NDM-5 (Klebsiella pneumoniae, UniProt C7C422, M154L/V88L)
NDM-6 = NDM-6 (Klebsiella pneumoniae, UniProt C7C422, A233V)
NDM-7 = NDM-7 (Klebsiella pneumoniae, UniProt C7C422, D130N/M154L)
KPC-2 = KPC-2 (Klebsiella pneumoniae, UniProt Q9F663)
KPC-3 = KPC-3 (Klebsiella pneumoniae, UniProt Q9F663, H272Y)
KPC-38 = KPC-38 (Klebsiella pneumoniae, UniProt Q9F663); conditions: read-out: Ki app, means from three independent studies
OXA-48 = OXA-48 (Klebsiella pneumoniae, UniProt Q6XEC0)

SMILES | Ki (CTX-M-14) [nM] | Ki (CTX-M-15) [nM] | Ki (CTX-M-27) [nM] | Ki (SHV-2) [nM] | Ki (SHV-5) [nM] | Ki (SHV-12) [nM] | Ki (OXA-23) [nM] | Ki (OXA-24) [nM] | Ki (OXA-65) [nM] | Ki (OXA-66) [nM] | Ki (OXA-72) [nM] | Ki (VIM-1) [nM] | Ki (VIM-2) [nM] | Ki (IMP-1) [nM] | Ki (IMP-6) [nM] | Ki (NDM-1) [nM] | Ki (NDM-4) [nM] | Ki (NDM-5) [nM] | Ki (NDM-6) [nM] | Ki (NDM-7) [nM] | also measured
O=C(NC1CCNCC1)[C@@H]1CC[C@@H]2CN1C(=O)N2OS(=O)(=O)O [Relebactam, relebactam] | 5.96 ± 3.22 | 0.841 ± 0.235 | 3.62 ± 1.2 | 0.373 ± 0.0856 | 6.26 ± 1.53 | 19.3 ± 6.32 | 5640 | > 100000 | > 100000 | > 100000 | ≥ 37400 | > 100000 | > 100000 | > 100000 | > 100000 | > 100000 | > 100000 | > 100000 | > 100000 | > 100000 | 
C[C@]1(Cn2ccnn2)[C@H](C(=O)O)N2C(=O)C[C@H]2S1(=O)=O [Tazobactam, tazobactam] |  | 0.0387 ± 0.00434 | 0.0403 ± 0.0162 | 0.187 ± 0.104 | 1.84 ± 0.243 | 1.68 ± 0.266 | 14 ± 5.31 | 100 ± 45.6 | > 100000 | > 100000 | 78.9 ± 8.96 | > 100000 | > 100000 | > 100000 | > 100000 | > 100000 | > 100000 | > 100000 | > 100000 | > 100000 | Ki (KPC-2): 159 ± 48.2 nM; Ki (KPC-3): 270 ± 80.8 nM; Ki (KPC-38): 112 ± 14.5 nM; Ki (OXA-48): 5.32 ± 0.329 nM
O=C(O)C[C@@H]1CC[C@H](NC(=O)Cc2cccs2)B(O)O1 [Vaborbactam, vaborbactam] | 392 ± 20.3 | 78.1 ± 6.63 | 351 ± 28.7 | > 100000 | 1420 | 755 ± 103 | > 100000 | > 100000 | > 100000 | > 100000 | > 100000 | > 100000 | > 100000 | > 100000 | > 100000 | > 100000 | > 100000 | > 100000 | > 100000 | > 100000 | Ki (KPC-2): 63.7 ± 24.9 nM; Ki (KPC-3): 88.3 ± 30.3 nM; Ki (KPC-38): 48.3 ± 13.2 nM; Ki (OXA-48): > 100000 nM
